In patent US20260286302A1, “METHODS FOR PRODUCING A SUPER CENTRAL MEMORY CD8 T CELL SUBTYPE BY POLY(ADP-RIBOSE) POLYMERASE (PARP) INHIBITION AND USES THEREOF” (Georgetown University, priority 2023, published 2026):

Legend:
pMel-1 CD8 T cells [1] = experiment: Seahorse assays (OCR, ECAR); type: cell-based, mouse; details: PARPi-induced TCM^sup vs gp100-induced TCM
Description: CD8 T cells were activated with gp100 peptide with/without PARPi for 48 h, followed by mitochondrial stress tests (SeaHorse Bioscience), performed as per the manufacturer's specifications. OCR and ECAR were measured with an XFp flux analyzer (Seahorse Bioscience). For all assays, 160,000 cell per ml were plated onto culture plates using Cell-Tak (BD Biosciences). OCR and ECAR were measured in unbuffered DMEM (Agilent Biotechnologies) supplemented with 10 mM D-glucose (Sigma-Aldrich), 10 mM L-glutamine and 2.5 mM pyruvate, as indicated. The rates of FAO were determined in variously treated cells, as described above, using a Seahorse XF Palmitate-BSA FAO Reagent kit, used according to the manufacturer's instructions (Agilent Biotechnologies).

[2] = system: CD8 T cells of patients with recurrent ovarian cancer; experiment: PBMC of ovarian cancer patients pre and post treatment; type: in vivo, human
Description: Peripheral blood mononuclear cells (PBMCs) were isolated from whole blood collected in cell preparation tubes (CPT) with sodium citrate and viably frozen until analysis. After thawing, PBMCs were washed with flow buffer (5% BSA, 2 mM EDTA in PBS), incubated with Fc receptor blocking reagent (Miltenyi Biotec) and stained with monoclonal antibodies for 20-30 min at 4° C. For staining for Ki-67 and Granzyme B, cells were fixed and permeabilized using a Fix/Perm buffer (eBiosciences) according to the manufacturer's instructions. Dead cells were excluded from the analysis by using the viability dye, LIVE/DEAD Fixable (Life Technologies). All assays were performed using multiparametric flow cytometry (MACSQuant; Miltenyi Biotec). Data were analyzed using FlowJo software v.10.6.1 (FlowJo, LLC). Flow cytometric data were quantified either as the median fluorescence intensity or as a percentage of cells, as indicated.

pMel-1 CD8 T cells [3] = experiment: RT-PCR gene expression in TCM^sup versus TCM; type: cell-based, mouse; details: TCM^sup vs gp100-induced TCM
Excerpt: Total RNA was extracted from gp100 or gp100 plus PARPi-activated CD8 T cells using the RNeasy Mini Kit (Qiagen, catalog no. 74004) following the manufacturer's instructions. The extraction included a digestion step with DNase I to prevent subsequent amplification of genomic DNA. One μg total RNA was subjected to single-strand complementary DNA synthesis using High-Capacity cDNA Reverse Transcription Kit (Thermo Fisher, catalog no. 4368814). The Taqman® gene expression assay from Applied Biosystems was used for qrtPCR, and primer pairs (catalog no. 4331182) from Applied Biosystems were used to detect gene expression of Eomes (#Mm01351984-m1), Acot1 (#Mm0162271-S1), Cpt1a (#Mm0123183-m1), Klf2 (#Mm00500486-g1), CD62L (#Mm00441291-m1),CCR7 (#Mm99999130-s1), and Cdkn1b (#Mm00438168-m1). Data were procured using StepOnePlus Real-Time PCR System from Applied Biosystems and normalized to the geometric mean of the housekeeping gene beta-actin (β-actin) (#Mm02619580-g1).

SIRT-1/FOXO1 = SIRT-1/FOXO1 signaling, Western blot and immunofluorescence; type: cell-based, mouse
Description: pMel-1 CD8 T cells were activated with gp100 in the presence or absence of PARPi for 48 h containing glass coverslips. Cells were then washed with PBS (Mg^+ca^+), fixed for 5 min with 4% PFA and permeabilized in PBS/triton 1×. […] Finally, DAPI staining was applied. Images were acquired with a Leica TCS-SP5II upright confocal microscope (Leica Microsystems).

B16F10 = experiment: Tumor growth in immune deficient nude mice (B16F10); type: in vivo, mouse
Description: The effect of PARPi on direct CD8 T cell-driven anti-tumor immune response remains poorly understood. Therefore, to dissect this effect, the anti-tumor immune effect of PARPi was tested in vivo in tumor models that require T cell priming, which helps delineate the direct effect of the drug on CD8 T cells. […] While 18% and 10% of mice survived in the vaccine-treated and PARPi-treated groups, respectively, in the TC-1 tumor model at day 22, 90% survived when PARPi was added to the vaccine. Similarly, in the B16F10 tumor model, 10% of the mice treated with vaccine alone were alive at day 22, compared to 40% when PARPi was added.

pMel-1 CD8 T cells [4] = type: cell-based
Description: For ACT experiments, CD8+ T cells from pMel-1 mice were activated with gp100 peptide with and without PARPi for 48 h. Based on their CD44 and CD62L expression, cells were sorted by FACS and transferred into 9-day-old B16F10 melanoma-bearing mice tumor-bearing mice (1×10^6 cells per mouse). Tumor growth and survival of mice were monitored.
A total of 0.1-0.2×10^6 cells per sample were stained for Live/Dead staining followed by fixation and permeabilization. […] CD8^+ T cells from tumor samples were stained similarly. Data acquisition was performed on a BD LSR II flow cytometer using the software FACS Diva v.9.0. Results were analyzed using FlowJo software (TreeStar). […]

[5] = system: CD8+ T cells in TME of TC-1 tumors; experiment: Immune profiling of the TME, TC-1 tumor-bearing mice; type: in vivo, mouse
Excerpt: Two-to-three days after the second vaccination, mice in the various groups were euthanized and tumors were collected.
A total of 0.1-0.2×10^6 cells per sample were stained for Live/Dead staining followed by fixation and permeabilization. For IFNγ and granzyme B (Gzm B) staining, BD Cytofix/Cytoperm (catalog no. 51-2090KZ) and BD Perm/Wash (catalog no. 51-2091KZ) buffer set were used according to the manufacturer's instructions (BD Pharmingen). CD8^+ T cells from tumor samples were stained similarly. Data acquisition was performed on a BD LSR II flow cytometer using the software FACS Diva v.9.0. Results were analyzed using FlowJo software (TreeStar). MitoFM, a green-fluorescent mitochondrial stain, which localizes to mitochondria, was used as described previously (Sukumar et al., Cell Metab 23 (1): 63-76, 2016).

O=C(c1cc(Cc2n[nH]c(=O)c3ccccc23)ccc1F)N1CCN(C(=O)C2CC2)CC1 [olaparib]
extracellular acidification rate (ECAR; Glycolysis) (pMel-1 CD8 T cells [1]): decrease
oxygen consumption rate (OCR; OXPHOS) (pMel-1 CD8 T cells [1]): significant increase
frequency of Ki67+ CD8 T cells ([2]; olaparib plus anti-PDL1 (Durvalumab), pre vs post treatment): decrease
CD62L expression in TCM CD8 T cells ([2]; olaparib plus anti-PDL1 (Durvalumab), some patients): increased
patients with an increase in TCM CD8 T cells ([2]; ovarian cancer patients treated with olaparib plus anti-PDL1 (Durvalumab), pre vs post treatment): 63%
FOXO1-regulated memory genes (Cd62l, Klf2, Tcf7, Ccr7) (pMel-1 CD8 T cells [3]): upregulated
expression of Acot1 and Cpt1α (pMel-1 CD8 T cells [3]): significantly higher
FOXO1 acetylation (SIRT-1/FOXO1; PARPi-treated CD8 T cells): decrease
SIRT-1 expression and activity (SIRT-1/FOXO1; activated pMel-1 CD8 T cells): increased
FOXO1 in the nucleus (SIRT-1/FOXO1; immunofluorescence and Western blot, compared to gp100-activated cells): increase in accumulation and expression
FOXO1 phosphorylation (SIRT-1/FOXO1; total lysate): significant reduction
tumor growth (B16F10): did not affect tumor growth
toxicity (percentage of live cells) (pMel-1 CD8 T cells [4]; 48 h time point): did not show any significant toxicity
phenotype of CD44intCD62Lint intermediate population (pMel-1 CD8 T cells [4]; 96 h after PARPi treatment): shifted more toward CD44^hiCD62L^hi population
expression of memory markers Eomes, CCR7 and Bcl2 (pMel-1 CD8 T cells [4]; CD44hiCD62Lhi population compared to TCM, 48 h): significantly increased
mitochondrial mass (MitoFM) (pMel-1 CD8 T cells [4]; TCM^sup cells): increase
PGC1α expression (pMel-1 CD8 T cells [4]; TCM^sup cells vs TCM from gp100): increase
level of γH2AX (pMel-1 CD8 T cells [4]; activated pMel-1 CD8 T cells): increase
IFNγ and Gzm B in PARPi-induced CD44hiCD62Lhi cells (pMel-1 CD8 T cells [4]; compared to TCM, 48 h): significantly higher
IFNγ and Gzm B expression on activated CD8 T cells (pMel-1 CD8 T cells [4]; compared to gp100 alone, 48 h): significant increase
cell cycle (pMel-1 CD8 T cells [4]; gp100-activated, 48 h): arrested in the G2/M phase
proliferation capacity (Ki67) (pMel-1 CD8 T cells [4]; gp100-activated, 48 h): significantly reduced
percentage of CD44hiCD62Lhi TCM CD8 T cell population (pMel-1 CD8 T cells [4]; gp100-activated, 48 h of treatment, for PARPi concentration-dependent): increase
number of total and antigen-specific CD8+ T cells in TME ([5]; TC1, vaccinated in the presence of PARPi vs either treatment alone): significant increase
IFNγ+ and granzyme B+ total and antigen-specific CD8+ T cells ([5]; TC-1, PARPi given with the vaccine): enhanced functionality
CD44hiCD62Lhi CD8 T cells within the TCM compartment in the TME ([5]; TC-1, PARPi in combination with vaccine): appearance of a distinct population
vaccine-induced total and antigen-specific effector (TEM) and central memory (TCM) CD8 T cells in the TME ([5]; TC-1, PARPi with vaccine): increased
proliferation of CD8 T cells as determined by Ki67 expression ([5]; TC-1 TME): significant decrease
